Source: patent US20260200928A1, “THERAPEUTIC COMPOUNDS” (Sanofi, priority 2022, published 2026)

These compounds were tested against T1, human IL-17A (Homo sapiens, UniProt Q16552) (assay: IL-17A AlphaLISA competition assay (block of IL-17A binding to its receptor IL-17RA)). Conditions: mean IC50 (n≥2), block of IL-17A binding to IL-17RA.
T1 construct: purchased R&D Systems 7955-IL/CF
T1 sequence (Q16552 24-155): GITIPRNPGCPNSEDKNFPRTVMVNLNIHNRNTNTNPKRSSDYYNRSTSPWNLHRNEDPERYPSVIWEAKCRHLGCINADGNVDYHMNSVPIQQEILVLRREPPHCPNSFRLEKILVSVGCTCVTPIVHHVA
Method in brief: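 Bead-based AlphaLISA competition in PBS with 0.05% Tween-20 and 0.1% BSA: compound first meets human IL-17A (7.5 nM stock) for 30 min, then IL-17RA/Fc (5 nM stock) for 90 min, all at room temperature, before acceptor/donor bead capture. IC50 fitted 4-parameter, DMSO and 4 μM reference inhibitor as controls; at least duplicate.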
`Cn1nccc1C(=O)N[C@H](C(=O)Nc1cc(CN2C[C@@H](C(F)(F)F)NC2=O)ccn1)C(C1CC1)C1CC1` [Example 15, N-((S)-1,1-dicyclopropyl-3-oxo-3-((4-(((S)-2-oxo-4-(trifluoromethyl)imidazolidin-1-yl)methyl)pyridin-2-yl)amino)propan-2-yl)-1-methyl-1H-pyrazole-5-carboxamide] was tested, and the IC50 was 0.201 µM.
`COC[C@H](c1ccnc(NC(=O)C(NC(=O)c2nocc2C)C2CCC(F)CC2)c1)N1C[C@@H](C(F)(F)F)NC1=O` (single isomer, unassigned) [Example 284] gave an IC50 of 0.062 µM.
`CCC(c1ccnc(NC(=O)C(NC(=O)c2ccnn2C(C)C)C2CCC(C)CC2)c1)N1CC(C(F)(F)F)NC1=O` [Example 260, 1-isopropyl-N-((S)-1-((1r,4S)-4-methylcyclohexyl)-2-oxo-2-((4-((R)-1-((S)-2-oxo-4-(trifluoromethyl)imidazolidin-1-yl)propyl)pyridin-2-yl)amino)ethyl)-1H-pyrazole-5-carboxamide] was tested, and the IC50 was 0.013 µM.
Work on `O=C(CCC(F)(F)F)NC(c1ccnc(NC(=O)[C@@H](NC(=O)c2nonc2C2CC2)C(C2CC2)C2CC2)c1)C1CC1` (single isomer, unassigned) [Example 39] yielded an IC50 of 0.138 µM.
`CCc1nocc1C(=O)N[C@H](C(=O)Nc1cc(C(COC)N2C[C@@H](C(F)(F)F)NC2=O)ccn1)[C@H]1CC[C@H](C)CC1` (single isomer, unassigned) [Example 125] gave an IC50 of 0.013 µM.
For `CCc1conc1C(=O)N[C@H](C(=O)Nc1cc([C@@H](COC)N2C[C@@H](C(F)(F)F)NC2=O)ccn1)[C@H]1CCCC(F)(F)C1` (single isomer, unassigned) [Example 305], the IC50 was 0.029 µM.
In the case of “N-((S)-2-((4-((S)-1-(5,5-difluoro-2-oxotetrahydropyrimidin-1(2H)-yl)-2-methoxyethyl)pyridin-2-yl)amino)-1-(4,4-difluorocyclohexyl)-2-oxoethyl)-4-ethyl-1,2,5-oxadiazole-3-carboxamide [Example 183]”, the IC50 is reported as 0.042 µM.
Compound `Cn1nccc1C(=O)N[C@H](C(=O)Nc1cc(C(NC(=O)CCC(F)(F)F)C2CC2)ccn1)C(C1CC1)C1CC1` (single isomer, unassigned) [Example 38] has an IC50 of 0.448 µM.
`CC(C)n1nccc1C(=O)NC(C(=O)Nc1cc(C(NC(=O)CCC(F)(F)F)C2CC2)ccn1)C1CCC(F)(F)CC1` (stereo not shown) [Example 48, N-(2-((4-(cyclopropyl(4,4,4-trifluorobutanamido)methyl)pyridin-2-yl)amino)-1-(4,4-difluorocyclohexyl)-2-oxoethyl)-1-isopropyl-1H-pyrazole-5-carboxamide] showed an IC50 of 0.229 µM.
Compound `C[C@@H](OC(C)(C)C)[C@@H](NC(=O)OCc1ccccc1)C(=O)Nc1cc(CN2C[C@@H](C(F)(F)F)NC2=O)ccn1` [Example 100, Benzyl ((2R,3R)-3-(tert-butoxy)-1-oxo-1-((4-(((S)-2-oxo-4-(trifluoromethyl)imidazolidin-1-yl)methyl)pyridin-2-yl)amino)butan-2-yl)carbamate] has an IC50 of 17.4 µM.
`COCC(c1ccnc(NC(=O)[C@@H](NC(=O)Cc2cc(C)[nH]n2)[C@H]2CC[C@H](C)CC2)c1)N1C[C@@H](C(F)(F)F)NC1=O` (single isomer, unassigned) [Example 114] gave an IC50 of 0.082 µM.
Work on `Cc1cnn(C)c1Cc1ccnc(NC(=O)[C@@H](NC(=O)c2ccnn2C(C)C)[C@H]2CC[C@H](C)CC2)c1` [Example 55, N—((S)-2-((4-((1,4-dimethyl-1H-pyrazol-5-yl)methyl)pyridin-2-yl)amino)-1-((1r,4S)-4-methylcyclohexyl)-2-oxoethyl)-1-isopropyl-1H-pyrazole-5-carboxamide] yielded an IC50 of 0.183 µM.
`CCn1nccc1C(=O)N[C@H](C(=O)Nc1cc(C[C@@H]2C[C@@H](C(F)(F)F)NC2=O)ccn1)[C@H]1CC[C@H](C)CC1` [Example 153, 1-ethyl-N—((S)-1-((1r,4S)-4-methylcyclohexyl)-2-oxo-2-((4-(((3R,5S)-2-oxo-5-(trifluoromethyl)pyrrolidin-3-yl)methyl)pyridin-2-yl)amino)ethyl)-1H-pyrazole-5-carboxamide] gave an IC50 of 0.171 µM.
